Entries after “also recorded” stand apart in the source; their conditions may differ. Like-named read-outs stand apart in the source and are kept apart here.
Assay: Phase 1 single ascending dose (Part A) pharmacokinetics, fasted state
Assay type: in vivo, human
Settings: for AUC(0-inf) / AUC(0-t) / Cmax / Vd/F / half-life / Tmax / CL renal: human; for AUC(0-inf) / AUC(0-t) / Cmax / Vd/F / half-life / Tmax: plasma
Description: A Phase 1, randomized, blinded, placebo-controlled safety, tolerability, and pharmacokinetic study of Compound I in 80 healthy adult subjects was conducted.
This study was a randomized, blinded, placebo-controlled, ascending-dose study to evaluate the safety, tolerability, and pharmacokinetic (PK) of single (Part A) and multiple (Part B) doses of Compound I in healthy subjects. In addition, the effects of a standard high-fat breakfast, standard low-fat breakfast, and pretreatment and co-administration of a proton pump inhibitor (PPI) on the tolerability and PK of a single dose of Compound I were investigated in 2 groups in Part A. All subjects received their full dose of Compound I, administered as the appropriate number of either 25 or 200 mg tablets. The high fat breakfast comprised the following: total energy: 895 kcal; total fat: 61 g; total protein: 41 g; total carbohydrate: 46 g. The low fat breakfast comprised the following: total energy: 611 kcal; total fat: 14.7 g; total protein: 20.3 g; total carbohydrate: 106.3 g.
In Part A, 56 subjects were studied in 6 groups (Groups A1 to A6) with each of Groups A1, A2, A3, A5, and A6 composed of 8 subjects (6 received Compound I, 2 received placebo) and Group A4 was composed of 16 subjects (12 received Compound I, 4 received placebo). The first dose group (A1) included a sentinel cohort of 2 subjects (1 subject received Compound I and 1 subject received placebo) dosed 48 hours in advance of the remainder of the group.
All subjects in Groups A1 through A6 participated in Treatment Period 1 and received the fasted treatment regimen. In Treatment Period 1, subjects resided at the Clinical Research Unit (CRU) from Day −1 (the day before dosing) to Day 4 (72 hours post-dose). In Treatment Period 1, all doses were administered on the morning of Day 1, after an overnight fast of at least 8 hours. In Groups A1, A2, A3, and A6, each subject received only a single dose of Compound I (25 mg in Group A1, 75 mg in Group A2, 200 mg in Group A3, and 1600 mg in Group A6) or placebo (per the randomization schedule) during the study.
In Part A, all doses in Treatment Period 1 were administered after an overnight fast of at least 8 hours. For the A4 cohort, in Treatment Periods 2 and 3, doses were administered 30 minutes after starting and approximately 10 minutes after completing a high- or low-fat breakfast. In Treatment Period 4, the dose was administered after an overnight fast and following administration of a PPI (PPI was comprised of 3 doses of rabeprazole 20 mg, starting on Day −2 and with the final dose 2 hours before Compound I administration on Day 1). For Group A5, doses during Treatment Period 2 were administered 30 minutes after starting and approximately 10 minutes after completing a low-fat standard breakfast on the morning of Day 1, and doses during Treatment Period 3 were administered on Day 1 after a low-fat meal and following administration of a PPI for 3 days (given as 3 QD doses, with the final PPI dose at 2 hours prior to study drug administration on Day 1).

[1] = 800-mg dose level (32.0-fold increase in dose)

For Cn1cc(-c2cn(-c3ccc(OC(F)(F)F)cc3)c(=O)c3ncn(C)c23)cn1 [Compound I], the λZ (1600 mg single dose (A6)) was 0.0351 h⁻¹, the “% AUCextrap” value (1600 mg single dose (A6), arithmetic mean) was 6.57% and the “Dose proportionality of systemic exposure (Cmax and AUC)” value (200-mg dose and greater) was “less than proportional”. For the same molecule, the “Fold increase in AUC0-t” value [1] was 16.4 fold, the “Fold increase in AUC0-∞” value [1] was 17.1 fold and the “Fold increase in Cmax” value [1] was 6.5 fold. The “Dose proportionality of systemic exposure (Cmax and AUC)” value (between 25 and 75 mg) was “dose-proportional; also recorded: consistent with linear PK”, the AUC(0-inf) (oral, 25 mg single dose (A1)) was 4600 ng·h/mL and the AUC(0-t) (oral, 25 mg single dose (A1)) was 4550 ng·h/mL. For the same molecule, the Cmax (oral, 25 mg single dose (A1)) was 913 ng/mL, the Vd/F (oral, 25 mg single dose (A1), read-out: Vz/F) was 28.3 L and the Vd/F (oral, 25 mg single dose (A1), read-out: Vz/F(norm)) was 0.384 L/kg. It also gave a half-life (oral, 25 mg, 25 mg single dose (A1)) of 3.6 h, a Tmax (oral, 25 mg, 25 mg single dose (A1), median, read-out: tmax) of 1.5 h and an AUC(0-inf) (oral, 75 mg single dose (A2)) of 13000 ng·h/mL. For the same molecule, the AUC(0-t) (oral, 75 mg single dose (A2)) was 13000 ng·h/mL, the Cmax (oral, 75 mg single dose (A2)) was 2250 ng/mL and the Vd/F (oral, 75 mg single dose (A2), read-out: Vz/F) was 41.7 L. For the same molecule, the Vd/F (oral, 75 mg single dose (A2), read-out: Vz/F(norm)) was 0.574 L/kg, the half-life (oral, 75 mg, 75 mg single dose (A2)) was 5 h and the Tmax (oral, 75 mg, 75 mg single dose (A2), median, read-out: tmax) was 1.25 h. It also gave a Tmax (oral, 75 mg, 25 and 75 mg doses, read-out: tmax, latest individual value) of no more than 2.5 h, an AUC(0-inf) (oral, 200 mg single dose (A3)) of 32600 ng·h/mL and an AUC(0-t) (oral, 200 mg single dose (A3)) of 32300 ng·h/mL. It also gave a Cmax (oral, 200 mg single dose (A3)) of 3060 ng/mL, a Vd/F (oral, 200 mg single dose (A3), read-out: Vz/F) of 102 L and a Vd/F (oral, 200 mg single dose (A3), read-out: Vz/F(norm)) of 1.37 L/kg. For the same molecule, the half-life (oral, 200 mg, 200 mg single dose (A3)) was 10.2 h, the Tmax (oral, 200 mg, 200 mg single dose (A3), median, read-out: tmax) was 1.75 h and the AUC(0-inf) (oral, 400 mg single dose (A4)) was 55100 ng·h/mL. For the same molecule, the AUC(0-t) (oral, 400 mg single dose (A4)) was 53800 ng·h/mL, the Cmax (oral, 400 mg single dose (A4)) was 4510 ng/mL and the Vd/F (oral, 400 mg single dose (A4), read-out: Vz/F) was 122 L. The Vd/F (oral, 400 mg single dose (A4), read-out: Vz/F(norm)) was 1.74 L/kg, the half-life (oral, 400 mg, 400 mg single dose (A4)) was 11.7 h and the Tmax (oral, 400 mg, 400 mg single dose (A4), median, read-out: tmax) was 2.5 h. For the same molecule, the AUC(0-inf) (oral, 800 mg single dose (A5)) was 78700 ng·h/mL, the AUC(0-t) (oral, 800 mg single dose (A5)) was 74500 ng·h/mL and the Cmax (oral, 800 mg single dose (A5)) was 5910 ng/mL. The Vd/F (oral, 800 mg single dose (A5), read-out: Vz/F) was 234 L, the Vd/F (oral, 800 mg single dose (A5), read-out: Vz/F(norm)) was 3.26 L/kg and the half-life (oral, 800 mg, 800 mg single dose (A5)) was 11.3 h. The Tmax (oral, 800 mg, 800 mg single dose (A5), median, read-out: tmax) was 1.8 h, the AUC(0-inf) (oral, 1600 mg single dose (A6)) was 86900 ng·h/mL and the AUC(0-t) (oral, 1600 mg single dose (A6)) was 73600 ng·h/mL. The Cmax (oral, 1600 mg single dose (A6)) was 5580 ng/mL, the Vd/F (oral, 1600 mg single dose (A6), read-out: Vz/F) was 525 L and the Vd/F (oral, 1600 mg single dose (A6), read-out: Vz/F(norm)) was 7.62 L/kg. It also gave a half-life (oral, 1600 mg, 1600 mg single dose (A6)) of 19.8 h, a Tmax (oral, 1600 mg, 1600 mg single dose (A6), median, read-out: tmax) of 2 h and a Tmax (oral, higher dose levels (200 to 1600 mg), read-out: tmax, latest individual value) of no more than 6 h. For the same molecule, the Tmax (po, single oral doses 25 to 1600 mg, read-out: Median tmax, range across all doses) was 1.3 to 2.5 h, the CL renal (urine and plasma, oral, 400 mg single dose (A4)) was 49.7 mL/min and the CL renal (urine and plasma, oral, 800 mg single dose (A5)) was 48.5 mL/min. For the same molecule, the CL renal (urine and plasma, oral, 1600 mg single dose (A6)) was 47.6 mL/min, the CL renal (urine, oral, 25 mg single dose (A1)) was 70.5 mL/min and the CL renal (urine, oral, 75 mg single dose (A2)) was 71.8 mL/min. The CL renal (urine, oral, 200 mg single dose (A3)) was 63.5 mL/min.
